# Data taken from PMC7539012, “Hyperphosphorylated tau aggregation and cytotoxicity modulators screen identified prescription drugs linked to Alzheimer's disease and cognitive functions” (Scientific Reports, 2020).
# Structures can show the parent of a compound that is named as a salt.
# Tested on: T1, 1N4R p-tau
# T1 construct: made in house; host or cells: E. coli (PIMAX system)
# Experiment: p-tau aggregation modulator screen of 1280-compound library (ThS fluorescence net change over 16 h);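 as to ThS net change: 30 µM compound with 6 µM p-tau over 16 h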
# Assay type: biochemical
# Design: key to PTAI>3SD: *: PTAI>3SD
# Conditions: not given
row,Compound,ThS net change
1,COc1cccc2c1C(=O)c1c(O)c3c(c(O)c1C2=O)C[C@@](O)(C(=O)CO)C[C@@H]3O[C@H]1C[C@H](N)[C@H](O)[C@H](C)O1 [Doxorubicin hydrochloride],249
2,CCCc1ncc(C[n+]2ccccc2C)c(N)n1 [Amprolium hydrochloride],424
3,COc1ccc2c3c1O[C@H]1C[C@@H](O)C=C[C@@]31CCN(C)C2 [Galanthamine hydrobromide],448
4,NC(=O)C[S+]([O-])C(c1ccccc1)c1ccccc1 (centres unmarked) [Modafinil],413
5,C[C@]12C[C@H]3S[C@H]3C[C@@H]1CC[C@@H]1[C@@H]2CC[C@]2(C)[C@@H](O)CC[C@@H]12 [Epitiostanol],421
6,CN1CC[C@@]2(C)c3cc(O)ccc3N(C)[C@H]12.O=C(O)/C=C/C(=O)O [(-)-Eseroline fumarate salt],309
7,C=C(NC(=O)C(=C)NC(=O)c1csc(C2=N[C@@H]3c4csc(n4)[C@H]4NC(=O)c5csc(n5)[C@H]([C@](C)(O)[C@@H](C)O)NC(=O)[C@H]5CSC(=N5)/C(=C/C)NC(=O)[C@H]([C@@H](C)O)NC(=O)c5csc(n5)[C@]3(CC2)NC(=O)[C@H](C)NC(=O)C(=C)NC(=O)[C@H](C)NC(=O)[C@H]([C@@H](C)CC)N[C@@H]2C=Cc3c([C@H](C)O)cc(nc3[C@H]2O)C(=O)O[C@@H]4C)n1)C(N)=O [Thiostrepton],503
8,C[C@@H]1O[C@@H](O[C@@H]2C=C3CC[C@@H]4[C@H](CC[C@]5(C)[C@@H](c6ccc(=O)oc6)CC[C@]45O)[C@@]3(C)CC2)[C@H](O)[C@H](O)[C@H]1O [Proscillaridin A],498

# Same assay, conditions: 1280-compound library screen; ThS fluorescence net change over 16 h
row,Compound,ThS net change
1,CC1(C)OC(=O)NC1=O [Dimethadione],381
2,NS(=O)(=O)c1cc2c(cc1Cl)NCNS2(=O)=O [Hydrochlorothiazide],384
3,COc1ccc2c(c1)c(CC(=O)O)c(C)n2C(=O)c1ccc(Cl)cc1 [Indomethacin],386
4,CSc1ccc2c(c1)C(N1CCN(C)CC1)Cc1ccccc1S2.O=C(O)/C=C\C(=O)O (centres unmarked) [Methiothepin maleate],379
5,COc1cc(C)nc(-n2nc(C)cc2OC)n1 [Epirizole],389
6,Minoxidil,412
7,NCCCNCCSP(=O)(O)O [Amifostine],392
8,Cc1ccc(S(=O)(=O)NC(=O)NN2CC3CCCC3C2)cc1 (centres unmarked) [Gliclazide],379
9,CCCC1O[C@@H]2C[C@H]3[C@@H]4CCC5=CC(=O)C=C[C@]5(C)[C@H]4[C@@H](O)C[C@]3(C)[C@]2(C(=O)CO)O1 (some centres unmarked) [Budesonide],389
10,CCN(CC)CCc1nc(-c2ccccc2)no1.O=C(O)CC(O)(CC(=O)O)C(=O)O [Oxalamine citrate salt],410
11,CC1(C)S[C@@H]2[C@H](NC(=O)Cc3ccccc3)C(=O)N2[C@H]1C(=O)O [Benzylpenicillin sodium],398
12,COc1ccccc1OCCNCC(O)COc1cccc2[nH]c3ccccc3c12 (centres unmarked) [Carvedilol],394
13,[H]/N=C(/NCCCCC)N/N=C/c1c[nH]c2ccc(OC)cc12 [Tegaserod maleate],379
14,CC(C)Cc1ccc([C@H](C)C(=O)O)cc1 [S-(+)-ibuprofen],406
15,Cn1c(=O)c2[nH]cnc2n(C)c1=O [Aminophylline],403
16,Nc1nc(O)c2ncn(COC(CO)CO)c2n1 [Ganciclovir],404

# Same assay, conditions: 1280-compound library screen; […]
row,Compound,ThS net change
1,Cl.O.O.O=C1CC[C@@]2(O)[C@H]3Cc4ccc(O)c5c4[C@@]2(CCN3CC2CC2)[C@H]1O5 [Naltrexone hydrochloride dihydrate],408

# Same assay, conditions: flag: p-tau aggregation inhibitor, ThS net change more than 3 SD from mean
row,Compound,PTAI>3SD
1,O=C1CN2Cc3c(ccc(Cl)c3Cl)N=C2N1 [Anagrelide],*

# Same assay, conditions: library screen, ThS fluorescence net change over 16 h with p-tau
row,Compound,ThS net change
1,O=C1CN2Cc3c(ccc(Cl)c3Cl)N=C2N1 [Anagrelide],22
2,CCN(CC)C(=O)/C(C#N)=C/c1cc(O)c(O)c([N+](=O)[O-])c1 [Entacapone],199
3,O=C(Nc1ccc([N+](=O)[O-])cc1Cl)c1cc(Cl)ccc1O [Niclosamide],199
4,COc1ccc(C(Cl)=C(c2ccc(OC)cc2)c2ccc(OC)cc2)cc1 [Chlorotrianisene],235
5,CO[C@H]1/C=C/O[C@@]2(C)Oc3c(C)c(O)c4c(c3C2=O)C2=NC3(CCN(CC(C)C)CC3)NC2=C(NC(=O)/C(C)=C\C=C\[C@H](C)[C@H](O)[C@@H](C)[C@@H](O)[C@@H](C)[C@H](OC(C)=O)[C@@H]1C)C4=O [Rifabutin],267
6,COCCOC(=O)C1=C(C)NC(C)=C(C(=O)OC/C=C/c2ccccc2)C1c1cccc([N+](=O)[O-])c1 (centres unmarked) [Cilnidipine],230
7,CCn1cc(C(=O)O)c(=O)c2cc3c(cc21)OCO3 [Oxolinic acid],313
8,Clc1ccc(COC(Cn2ccnc2)c2ccc(Cl)cc2Cl)c(Cl)c1 (centres unmarked) [Miconazole],316

# Same assay, conditions: p-tau aggregation modulator screen of 1280-compound library; ThS fluorescence net change
row,Compound,ThS net change
1,CC(C)N(CCC(C(N)=O)(c1ccccc1)c1ccccn1)C(C)C (centres unmarked) [Disopyramide],377
2,CC(C)NCC(O)COc1ccc(CC(N)=O)cc1 (stereo in doubt) [(S)-(-)-Atenolol],363
3,NC(=O)N/N=C/c1ccc([N+](=O)[O-])o1 [Nitrofural],365
4,NC(=O)N1c2ccccc2C=Cc2ccccc21 [Carbamazepine],370
5,OCCN1CCN(CCCN2c3ccccc3C=Cc3ccccc32)CC1 [Opipramol dihydrochloride],343
6,COC1=CC(=O)C[C@@H](C)[C@]12Oc1c(Cl)c(OC)cc(OC)c1C2=O [Griseofulvin],337
7,CCc1cc(C(N)=S)ccn1 [Ethionamide],360
8,CC(=O)S[C@@H]1CC2=CC(=O)CC[C@]2(C)[C@H]2CC[C@@]3(C)[C@@H](CC[C@@]34CCC(=O)O4)[C@H]12 [Spironolactone],372
9,C[N+](C)(CCOc1ccccc1)Cc1ccccc1.O=C([O-])c1cc2ccccc2cc1O [Bephenium hydroxynaphthoate],370
10,COC(=O)Nc1nc2cc(C(=O)c3ccc(F)cc3)ccc2[nH]1 [Flubendazol],332
11,Clc1ccc(Nc2nnc(Cc3ccncc3)c3ccccc23)cc1 [Vatalanib],356
12,c1ccc2c(c1)CCCC2C1=NCCN1 (centres unmarked) [Tetrahydrozoline hydrochloride],362
13,CN(CCCN1c2ccccc2CCc2ccccc21)CC(=O)c1ccc(Cl)cc1 [Lofepramine],375
14,CN(C)CCC=C1c2ccccc2CCc2ccccc21.Cl [Amitryptiline hydrochloride],362
15,CCN[C@H]1CN(CCCOC)S(=O)(=O)c2sc(S(N)(=O)=O)cc21 [Brinzolamide],348
16,Cc1nnc(NS(=O)(=O)c2ccc(N)cc2)s1 [Sulfamethizole],365
17,CC(C(=O)O)c1ccc2c(c1)Cc1cccnc1O2 (centres unmarked) [Pranoprofen],345
18,O=C(O)Cc1cc(I)c(Oc2ccc(O)c(I)c2)c(I)c1,369
19,CN1C(C(=O)Nc2ccccn2)=C(O)c2ccccc2S1(=O)=O [Piroxicam],329

# Same assay, conditions: p-tau aggregation modulator screen of 1280-compound library; […]
row,Compound,ThS net change
1,Clc1ccc(CSC(Cn2ccnc2)c2ccc(Cl)cc2Cl)cc1 (centres unmarked) [Sulconazole nitrate],336
2,C[C@]12COC(=O)C[C@@H]1CC[C@@H]1[C@@H]2CC[C@@]2(C)[C@H]1CC[C@]2(C)O [Oxandrolone],338
3,CS(=O)(=O)O.O.O=C(O[C@@H]1C[C@@H]2C[C@@H]3C[C@H](C1)N2CC3=O)c1c[nH]c2ccccc12 [Dolasetron mesilate],353

# Same assay, conditions: p-tau aggregation modulator screen of the compound library, ThS fluorescence net change
row,Compound,ThS net change
1,CCc1cccc2c3c([nH]c12)C(CC)(CC(=O)O)OCC3 (centres unmarked) [Etodolac],443
2,CN(C)CCN(Cc1ccc(Cl)cc1)c1ccccn1.Cl [Chloropyramine hydrochloride],421
3,CC(C)[C@H]1CC[C@H](C(=O)N[C@H](Cc2ccccc2)C(=O)O)CC1 [Nateglinide],413
4,CC(C)(O)c1ccccc1CC[C@@H](SCC1(CC(=O)O)CC1)c1cccc(/C=C/c2ccc3ccc(Cl)cc3n2)c1 [Montelukast],592
5,CC(C)c1nc(CN(C)C(=O)N[C@H](C(=O)N[C@@H](Cc2ccccc2)C[C@H](O)[C@H](Cc2ccccc2)NC(=O)OCc2cncs2)C(C)C)cs1 [Ritonavir],538
6,COc1nc(C)nc(Cl)c1N=C1NCCN1 [Moxonidine],433
7,CN(C)CCC=C1c2ccccc2C=Cc2ccccc21 [Cyclobenzaprine hydrochloride],414
8,O=C1[C@H](CC[C@H](O)c2ccc(F)cc2)[C@@H](c2ccc(O)cc2)N1c1ccc(F)cc1 [Ezetimibe],466
9,CNC(C)CCC=C(C)C.CNC(C)CCC=C(C)C.O=C(O)C(O)C(O)C(O)C(O)C(=O)O (centres unmarked) [Isometheptene mucate],481
10,CCCc1nc2c(C)cc(-c3nc4ccccc4n3C)cc2n1Cc1ccc(-c2ccccc2C(=O)O)cc1 [Telmisartan],454
11,C#CCN[C@@H]1CCc2ccccc21 [Rasagiline],447
12,O=C(CCCN1CCC(n2c(O)nc3ccccc32)CC1)c1ccc(F)cc1 [Benperidol],416
13,CCCCC[C@H](O)/C=C/[C@H]1[C@H](O)CC(=O)[C@@H]1CCCCCCC(=O)O [Alprostadil],445
14,CC1(C)O[C@@H]2C[C@H]3[C@@H]4CCC5=CC(=O)C=C[C@]5(C)[C@H]4[C@@H](O)C[C@]3(C)[C@]2(C(=O)CO)O1 [Desonide],440
15,C[C@H](CCC(=O)O)[C@H]1CC[C@H]2[C@@H]3CC[C@@H]4C[C@H](O)CC[C@]4(C)[C@H]3CC[C@]12C [Lithocholic acid],566
16,CCc1cccc(CC)c1NC(=O)CN(CC(=O)O)CC(=O)O [Etifenin],414
17,COc1c(N2CCNC(C)C2)c(F)cc2c(=O)c(C(=O)O)cn(C3CC3)c12 (centres unmarked) [Gatifloxacin],426
18,Cc1ccnc(NS(=O)(=O)c2ccc(N)cc2)n1 [Sulfamerazine],421
